Our source for the reduction of viability values is US10617715B2, “Methods of treating or preventing biofilm associated infections with free available chlorine free available chlorine water” (Sonoma Pharmaceuticals, Inc., priority 2008, dated 2020).

Positions of bridges follow the written chain, without caps; N, C: chain ends. Non-standard residues stand in square brackets, D forms with d. Residues, ends and D or L forms follow the SMILES beside them. *: point of attachment. Ileψ(thiazoline)Cys = CC[C@H](C)[C@H](N)C1=N[C@H](C(=O)*)CS1; dOrn = NCCC[C@@H](N)C(=O)O

In the assay the test system is exponential phase P. aeruginosa. The assay can be described thus: Susceptibility testing of exponential phase planktonic P. aeruginosa cells (suspension kill). The format is cell-based, Pseudomonas aeruginosa. The note with it: bacitracin 33 U/ml, 20 sec.-20 min.

`CC[C@H](C)[C@H](N)C1=N[C@H](C(=O)N[C@@H](CC(C)C)C(=O)N[C@H](CCC(=O)O)C(=O)N[C@H](C(=O)N[C@H]2CCCCNC(=O)[C@H](CC(N)=O)NC(=O)[C@@H](CC(=O)O)NC(=O)[C@H](Cc3cnc[nH]3)NC(=O)[C@@H](Cc3ccccc3)NC(=O)[C@H]([C@@H](C)CC)NC(=O)[C@@H](CCCN)NC2=O)[C@@H](C)CC)CS1` [bacitracin] ({Ileψ(thiazoline)Cys}-L[dE]IK[dOrn]I[dF]H[dD]N; lactam 4-C): the reduction of viability result was “ineffective and did not result in reduction of viability”.
